US10689415B2, “Conjugates of RGD peptides and (bacterio)chlorophyll photosensitizers” (YEDA RESEARCH AND DEVELOPMENT COMPANY LTD., priority 2006, dated 2020)
pKd: −log10 of the molar value. Where no end group is shown, it is not given here.

Key:
rat C6 glioma xenografts = test: Whole-body NIR fluorescence imaging, rat C6 glioma xenografts; type: in vivo, CD-1 nude male mice; conditions: 200 nmol dose, 4 to 72 hours post injection
Source text: The in Vivo Optical Imaging System (IVISR100/XFO-12, Xenogen Corp., Alameda, Calif., USA) was used to acquire fluorescent images of the RFP-expressing tumors, as well as photosensitizers associated with tissues and organs after their intravenous (i.v.) infusion to the tested animals. The field-of-view was 15 cm. Two images were taken; the first image is black and white, providing a photograph of the animal. The second image is a colored overlay of the emitted photon data, in the present case the NIR fluorescence of the compound (680-720 nm excitation filter and a 780-810 nm emission filter) or bioluminescence (560 nm) as described below. […]
Dynamic fluorescence images were acquired immediately following the injection of a conjugate of the invention and continued for approximately 2 hours. Fluorescence images were also obtained under isoflurane anesthesia for up to 72 hr after initial injection of the conjugate. […]
Dynamic fluorescence images were obtained from CD-1 nude male mice bearing rat C6 glioma xenografts. The fluorescence images were acquired using IVIS system as described in Materials and Methods. […]
Specific binding is defined as one inhibited by the unconjugated sensitizer. […] Fluorescence images of the blocked receptor xenografts with the same exposure time are illustrated in FIG. 19 on the same linear color scale to allow for a qualitative comparison. […]

H5V endothelial cells [1] = test: Phototoxicity assay (Neutral Red cell viability after illumination); type: cell-based, mouse; conditions: for LD50: Table 3: 10 μM BSA in medium (90 min, 37° C.)
Procedure: The light source for in vitro studies was home-built 100-W halogen lamp equipped with a high-pass filter (>650 nm, Safelight filter 1A Eastman Kodak Co., Rochester, N.Y., USA) and a 4-cm water filter. The lamp was used to illuminate (20 mW/cm^2/10 min (12 J/cm^2)) the culture plates from the bottom at room temperature in a dark room.
To determine the pigment photodynamic efficacy in vitro under standard conditions, cells were cultured in 96-well plates and preincubated for 15 or 90 min at 37° C. or 4° C., according to the indicated experiment protocol, with 0-25 μM conjugated or non-conjugated photosensitizer in different media conditions (culture medium DMEM/F12; 10% FCS in medium or 10 μM BSA in medium) in the absence or presence of excess free peptide (100 fold up to 1 mM). The cells were washed and illuminated (20 mW/cm^2 for 10 min). Plates were placed back in the culture incubator for 24 h. Cell survival was determined using Neutral Red cell viability assay. Cell survival was calculated as the percent of the dye accumulated in the untreated controls. […] Three kinds of controls were used: (i) light control: cells illuminated in the absence of pigments; (ii) dark control: cells treated with pigments but kept in the dark; and (iii) untreated cells that were kept in the dark.
Following photosensitization and a 24-h incubation period (37° C.), cell survival was determined by Neutral Red (Fluka Chemie, Buchs, Switzerland) accumulation. After subtraction of assay blanks, net optical density (570 nm) was computed as the average value of triplicates determinations. Cell survival was calculated as the percent of the dye accumulated in the untreated controls.
H5V cells were incubated for 90 min at 37° C. with 0-25 μM of conjugate 23 or compound 10 in different media conditions, illuminated and their survival was determined using Neutral Red viability assay as described in Materials and Methods.
Targeted phototoxicity is defined as one inhibited by the free ligand. Thus, further experiments attempted to block phototoxicity by administration of the free cycloRGDfK, which competes for the cellular binding of conjugate 23. H5V cells were incubated for 90 min at 37° C. with 0-25 μM of compound 10 or conjugate 23 in different media (10% FCS in medium or 10 μM BSA in medium) in the absence or presence of free excess cycloRGDfK (100-fold up to 1 mM). The cells were illuminated and cell survival was determined using Neutral Red viability assay, as described above.
In order to test the endocytosis theory and since the endocytic process is time- and temperature-dependent, H5V cells were incubated at 37° C. and 4° C. for 15 min with 0-20 μM of conjugate 23 in medium containing 10% FCS, in the presence or absence of excess cycloRGDfK (100-fold up to 1 mM). Cells were illuminated and their survival was determined as described above.
The phototoxicity of conjugate 24 was determined by monitoring the survival of cultured H5V endothelial cells following PDT. H5V cells were incubated for 2 hours at 37° C. with 0-25 μM conjugate 24 in culture medium DMEM/F12 with 10% FCS. The cells were illuminated and their survival was determined as described above.
Cells were incubated for 90 min at 37° C. in the presence of 0-20 μM conjugate 11 or compound 8 in 10 μM BSA in medium, illuminated and their survival was determined as described above.

[2] = Solubilization for in vitro experiments (water solubility); type: physicochemical
Procedure: Compound 24 was dissolved in 100% DMSO before use and diluted in saline to a final DMSO concentration of 5% v/v.

CT26luc colon cancer = test: In vivo PDT (VTP) of CT26luc colon cancer; design: species or system CD-1 nude male mice; conditions: i.v. injected and illuminated after 8 hours
Procedure: CD-1 nude male mice bearing the different tumor xenografts were anesthetized and 24 (5-24 mg/kg body weight) or 8 (9 mg/kg body weight) were i.v. injected via the tail vein. The tumors were trans-cutaneously illuminated after 3.5, 6, 8, 12 and 24 hours for 5-30 min at light doses of 30-360 J/cm^2. Intensity of illumination: 100-200 mW/cm^2. After treatment, the mice were returned to the cage. The mice were considered cured if tumor free for 90 days after treatment. Mice were euthanized when the tumor diameter reached 15 mm. […] (5) Mixture of 8 and cycloRGDfK: the mice were i.v. injected with mixture of 8 with cycloRGDfK and illuminated after indicated time point. (6) cycloRGDfK alone: the mice were i.v. injected with cycloRGDfK and illuminated after indicated time point. Images were taken at indicated time post PDT.
FIGS. 32A-32F show the therapeutic results of applying 15 mg/kg, 10 min illumination (60 J/cm^2), 8 hours post injection of conjugate 24 to mice bearing CT26luc tumors (bolded protocol in Table 5). 32A—conjugate 24 was i.v. injected 15 mg/kg, 10 min illumination (60 J/cm^2) 8 hours post injection; 32B—overlaid images taken after i.p. injection of luciferin to the mouse described in 32A, using the IVIS system. The first image is black and white, which gives the photograph of the animal. The second image is color overlay of the emitted photon data. […]

HUVEC = test: Cell detachment (rounding) assay, HUVEC; type: cell-based, human; conditions: 100 μM RGD-4C; recovery after 24 h in fresh medium
Procedure: (§1) H5V cells were cultured as monolayers in 3-cm dish for 24-48 h, and further incubated for 1 h with 100 μM RGD-4C at 4° C. or 37° C. The cells were washed once and re-incubated for three hours with fresh culture medium at 37° C. In the same fashion, HUVEC were cultured as monolayers in 6-well plate pre-coated with gelatin for 48 h, and incubated for 1 h with 100 μM RGD-4C at 37° C. The cells were washed once and re-incubated for 24 h with fresh culture medium at 37° C. The morphological changes of the cells were documented using light microscopy.

[3] = biological target: isolated αvβ3 integrin receptor (Homo sapiens, UniProt P05106+P06756); test: Solid-phase receptor assay, Eu-RGD-4C binding competed by RGD-4C; conditions: 100 μM of RGD-4C; highest attenuation
Procedure: The binding of Eu-RGD-4C to isolated αvβ3 integrin receptor was determined using time-resolved fluorometry. Each well of a microtiter plate (Nunc MaxiSorb) was coated with 50 μl of purified receptor (1 μg/ml in PBS) by shaking at 4° C. overnight. The receptor solution was then removed, and each well was blocked with 200 μl of milk (1% w/v milk powder in PBS, 1 hr, room temperature). The plate was then washed with 200 μl of PBS once, and incubated for 1 h at 37° C. with increasing concentrations of RGD-4C in the presence of constant amount of Eu-RGD-4C (10 million F.U./well). The ligand/competitor solution was removed and each well was washed three times with 200 μl PBS. Enhancement solution was added (200 μl/well) to release the chelated Eu. […] Under these experimental conditions, 100 μM of RGD-4C reduced by 50% Eu-RGD-4C binding to the isolated receptor. This value represents the highest attenuation of the Eu-RGD-4C binding, even at RGD-4C highest concentrations.

αvβ5 and αvβ3 integrins = conditions: read-out: affinity constant; reports by others; cited from earlier work
H5V endothelial cells [4] = test: Cell detachment (rounding) assay, H5V; type: cell-based, mouse
Procedure: as §1
The biological effect of RGD-4C binding was characterized in H5V cells and Human Umbilical Vein Endothelial Cells (HUVEC) using the cell-rounding assay described in Materials and Methods. The morphological changes of the cells were documented using light microscopy. […] This effect was reversible as the cells recovered following 3 h re-incubation with fresh culture medium (8% rounded cells in dishes with previous presence of RGD-4C versus 6% in the absence of RGD-4C).

[5] = test system: tumor grafts of mouse CT26luc colon carcinoma; test: Biodistribution (Pd by ICP-MS) in mice with CT26luc colon carcinoma grafts; type: in vivo, CD1 nude male mice; conditions: 8 hours post injection
Procedure: Anesthetized mice were i.v. injected (tail vein) with the different photosensitizer (pigment) conjugates (control group: untreated). The mice were sacrificed at indicated time points and samples of the indicated organs and tissues (blood, tumor, intestine, liver, spleen, kidneys, testies, heart, lung, brain, skin, muscle and fat) were placed in pre-weighted vials and immediately frozen and stored at −20° in the dark until analyzed. Three methods were used for sample preparation: (1) Each sample was thawed and homogenized in DDW (1:10 w/v). Aliquots of the homogenate (500 μl) were lyophilized in Eppendorf test tubes. […] Pd concentrations were determined by ICP-MS. According to method (3), the supernatants were diluted in methanol by a factor of two and the drug concentration was determined by fluorescence measurements (Varian-Cary Eclipse spectrofluorimeter, Palo Alto, Calif., USA) at 750 nm (peak values). Drug concentrations were interpolated from a fluorescence calibration curve, based on predetermined drug concentrations using absorption spectroscopy. […]
The conjugates of the invention are potential drug carriers. […] In order to quantify the conjugate levels in target tissues, Ion Coupled Plasma-Mass Spectroscopy (ICP-MS) was used for tracing the central M atom (e.g., Pd, Cu) in the target organ. […]

Chain of isolated αvβ3 integrin receptor (P06756 31-889 limits assumed): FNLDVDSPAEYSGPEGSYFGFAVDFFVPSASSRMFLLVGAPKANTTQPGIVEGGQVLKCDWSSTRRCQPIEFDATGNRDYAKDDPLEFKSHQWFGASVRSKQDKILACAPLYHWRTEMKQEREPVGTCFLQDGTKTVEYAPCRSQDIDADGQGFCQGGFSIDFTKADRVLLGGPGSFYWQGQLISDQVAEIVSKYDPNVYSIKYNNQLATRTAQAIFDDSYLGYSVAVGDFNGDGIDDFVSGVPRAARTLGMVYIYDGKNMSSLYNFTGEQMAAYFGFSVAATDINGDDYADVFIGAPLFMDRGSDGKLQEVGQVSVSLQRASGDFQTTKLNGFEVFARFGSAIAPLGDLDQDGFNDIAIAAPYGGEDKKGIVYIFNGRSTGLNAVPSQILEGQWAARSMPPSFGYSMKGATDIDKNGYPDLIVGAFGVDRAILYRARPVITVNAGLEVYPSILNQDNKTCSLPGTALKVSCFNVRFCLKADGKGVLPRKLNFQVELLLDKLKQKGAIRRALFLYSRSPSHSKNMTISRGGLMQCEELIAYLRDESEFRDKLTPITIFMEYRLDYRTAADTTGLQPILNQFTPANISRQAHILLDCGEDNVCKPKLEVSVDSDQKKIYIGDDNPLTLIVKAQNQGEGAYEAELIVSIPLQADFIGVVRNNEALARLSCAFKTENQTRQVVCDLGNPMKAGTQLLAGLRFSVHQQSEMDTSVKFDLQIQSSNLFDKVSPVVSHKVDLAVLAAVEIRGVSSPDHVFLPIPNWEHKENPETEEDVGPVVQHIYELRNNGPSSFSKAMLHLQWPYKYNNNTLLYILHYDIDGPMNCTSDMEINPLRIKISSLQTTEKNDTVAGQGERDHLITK
Chain of isolated αvβ3 integrin receptor (P06756 891-1048 limits assumed): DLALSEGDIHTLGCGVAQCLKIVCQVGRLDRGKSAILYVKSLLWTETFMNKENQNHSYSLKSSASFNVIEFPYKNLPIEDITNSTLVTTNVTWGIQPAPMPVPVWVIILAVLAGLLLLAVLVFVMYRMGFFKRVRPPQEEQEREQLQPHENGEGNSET
Chain of isolated αvβ3 integrin receptor (P05106 27-788): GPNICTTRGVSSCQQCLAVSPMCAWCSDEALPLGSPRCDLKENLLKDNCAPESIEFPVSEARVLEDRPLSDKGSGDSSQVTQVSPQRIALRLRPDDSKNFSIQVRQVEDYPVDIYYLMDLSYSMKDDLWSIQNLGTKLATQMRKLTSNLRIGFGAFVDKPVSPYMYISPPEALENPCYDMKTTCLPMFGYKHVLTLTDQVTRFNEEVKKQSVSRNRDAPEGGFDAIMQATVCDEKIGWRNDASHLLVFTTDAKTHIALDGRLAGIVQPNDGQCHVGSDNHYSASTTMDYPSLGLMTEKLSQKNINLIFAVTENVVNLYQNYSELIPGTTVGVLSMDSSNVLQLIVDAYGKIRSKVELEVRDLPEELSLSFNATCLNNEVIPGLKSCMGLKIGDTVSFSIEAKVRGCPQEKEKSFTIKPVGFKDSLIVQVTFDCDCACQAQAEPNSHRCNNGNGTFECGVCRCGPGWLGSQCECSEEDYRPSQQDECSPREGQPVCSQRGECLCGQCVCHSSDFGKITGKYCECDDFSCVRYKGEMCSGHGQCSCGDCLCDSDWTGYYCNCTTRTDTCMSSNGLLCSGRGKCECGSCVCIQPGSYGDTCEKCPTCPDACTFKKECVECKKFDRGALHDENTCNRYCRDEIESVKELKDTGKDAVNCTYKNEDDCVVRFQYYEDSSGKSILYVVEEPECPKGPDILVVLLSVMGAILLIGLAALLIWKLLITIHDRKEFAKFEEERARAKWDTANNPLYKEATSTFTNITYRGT

Which results are given for “Palladium 3^1-oxo-15-methoxycarbonylmethyl-Rhodobacteriochlorin 13^1-(2-sulfoethyl)amide potassium salt [Compound 8, reference compound]”?
whole-body fluorescence distribution (rat C6 glioma xenografts): no specific signal could be seen; phototoxic effects (H5V endothelial cells [1]; 90 min, 37° C., 10 μM BSA in medium, 0-20 μM): light- and drug concentration-dependent; LD50 (H5V endothelial cells [1]): 1.8 to 2 µM; LD50 (H5V endothelial cells [1]; with free peptide excess (RGD-4C 1 mM)): 2 µM; water solubility [2]: Water-soluble; PDT effect of controls (CT26luc colon cancer): no PDT effect

For “the cyclic nonapeptide CDCRGDCFC-NH2 (disulfide (positions not given here)) [RGD-4C]”, which HUVEC detachment (HUVEC) is on record?
Its HUVEC detachment is “induced HUVEC detachment from the dish in a reversible manner”.

And the “reduction of Eu-RGD-4C binding to the isolated receptor” value [3]?
The value was 50%.

And the pKd (αvβ5 and αvβ3 integrins)?
Its pKd is roughly 7.00.

And the “rounded cells (cell detachment from the dish)” value (H5V endothelial cells [4]; 100 μM RGD-4C, n=200)?
The value was 99%.

What about the “rounded cells after 3 h re-incubation with fresh culture medium” value (H5V endothelial cells [4]; previous presence of RGD-4C, 37° C.) of the same substance?
Its value is 8%.

What about the water solubility [2] of the same substance?
Its water solubility is “Water insoluble”.

For “Palladium 3^1-oxo-15-methoxycarbonylmethyl-Rhodobacteriochlorin 13^1-(2-sulfoethyl)amide-17^3-(cycloRADfK)amide potassium salt [Conjugate 42]”, which “concentrations in the tumor tissue and blood” value [5] is on record?
Its value is “quite the same”.
